Assay results taken from article PMC5021965 (Scientific Reports, 2016).
Read-outs that look alike come from different tables or passages of the source.

Tests used:
[1] = system: primary rat hepatocytes; assay: ROS generation in primary rat hepatocytes (DCFH-DA probe); format: cell-based; settings: primary hepatocytes of DM rats, atorvastatin 10 μM; GSH 0.5 and 2 mM, N-Acetylcysteine 0.5 and 2 mM, gemfibrozil 10 and 50 μM, ketoconazole 2 μM
Protocol: (§1) Another subset of experimental rats (CON, HFD and DM rats) were used for the primary rat hepatocytes isolation. […] Primary hepatocytes were isolated from experimental rats in a modified two-step collagenase perfusion method as previously reported. An aliquot of the hepatocyte suspension (at a density of 2.5 × 10^5/ml) was seeded in collagen-precoated plates. Following 4-h incubation, the medium was replaced with 500 μl fresh cultured medium. Twenty-four hours after plating, the medium was removed and the hepatocytes were overlaid with BD matrigel (0.25 mg/ml) in feeding medium (DMEM containing […] dexamethasone and 1% ITS) and cultured for another 24 h at 37 °C in a humidified atmosphere containing 5% CO2 for following experiments.
(§2) ROS generation was simultaneously measured using DCFH-DA as a fluorescent probe.

[2] = system: primary rat hepatocytes; assay: Hepatotoxicity in primary rat hepatocytes (MTT cell viability, LDH release); settings: for effect on atorvastatin-induced cytotoxicity: primary hepatocytes of DM rats, atorvastatin 10 μM, GSH 0.5 and 2 mM, N-Acetylcysteine 0.5 and 2 mM, gemfibrozil 10 and 50 μM, ketoconazole 2 μM
Protocol: as §1, §2

[3] = system: HepG2 cells; assay: Atorvastatin metabolism in HepG2 cells (formation of ortho-hydroxy atorvastatin); settings: HepG2, ketoconazole 2 and 10 μM; atorvastatin 30 μM, 30 min
Protocol: (§3) The cells were cultured in DMEM containing 10% FBS (fetal bovine serum), non-essential amino acids, antibiotics (100 IU/ml penicillin and 100 μg/ml streptomycin), 2 mM L-glutamine, and 3.7 g/L NaHCO3 in a humidified incubator of 5% CO2 and 95% air atmosphere at 37 °C.

[4] = phenobarbital i.p. 80 mg/kg
Protocol: Blood samples were collected under light ether anesthesia via the oculi chorioideae vein at 5, 10, 20, 30, 45, 60, 120, 240, 360, and 720 min after first dose and last dose. After 3 or 4 samplings, the appropriate amount of normal saline was administered to the rats via the tail vein to compensate for blood loss. The blood collected was mixed properly with the anticoagulant and centrifuged at 4000 rpm for 10 min. The plasma was separated and stored at −80 °C until drug analysis.
The pharmacokinetic parameters were calculated using noncompartmental analysis on Phenix WinNonlin 6.1 (Pharsight, St. Louis, MO). All values were expressed as mean ± S.D. Results were analyzed using one-way analysis of variance (ANOVA) followed by Tukey’s post hoc test. Differences among groups were determined by nonparametric test when necessary. Statistical significance was assumed at P < 0.05.

[5] = system: normal rats and phenobarbital pre-treated rats; assay: Atorvastatin-induced hepatotoxicity in normal rats and rats pre-treated with phenobarbital; settings: phenobarbital i.p. 80 mg/kg with atorvastatin 10, 20, 40 mg/kg for 10 days
Protocol: For normal rats, they were randomly divided into vehicle (CON) rats, low-dose treatment (AL) rats, middle-dose treatment (AM) rats and high-dose treatment (AH) rats (n = 5 for each group). CON rats orally received daily dose of vehicle. […] The serum biochemical parameters, liver weight and ROS levels were measured as described above.

[6] = system: hepatic SLCO1B1; assay: Activity and expression of hepatic SLCO1B1 in phenobarbital-treated rats; format: in vivo, rat; settings: PB rats, phenobarbital i.p. 80 mg/kg
[7] = system: hepatic Cyp3a; assay: Activity and expression of hepatic Cyp3a in phenobarbital-treated rats; settings: PB rats, phenobarbital i.p. 80 mg/kg
Protocol: as §1
Repaglinide (20 μM) and midazolam (10 μM) were used as probe substrates to identify the activities of SLCO1B1 and Cyp3a, respectively.
Total rat liver extract was prepared in RIPA lysis buffer containing 1 mM PMSF to measure protein levels of Cyp3a and SLCO1B1. Protein concentrations were measured by the BCA protein assay kit. 50 μg proteins were separated on a SDS-polyacrylamide gel electrophoresis and transferred onto polyvinylidene fluoride membranes (Millipore Corporation, Billerica, MA, USA).

[8] = system: HepG2 cells; assay: Hepatotoxicity of atorvastatin in HepG2 cells (MTT); settings: 10 μM, 24 h
Protocol: as §3

[9] = system: diabetic rats
Protocol: Briefly, experimental rats were assigned randomly to three groups: control (CON) group (n = 5), high-fat diet (HFD) group (n = 5) and diabetic (DM) group (n = 20). The CON rats were fed on normal chow while both HFD rats and DM rats were fed on high-fat diet (TROPHIC Animal Feed High-tech Co. Ltd, Nantong, China). After six-week of dietary manipulation, DM rats intraperitoneally (i.p.) received a single dose of STZ (35 mg/kg).
The diabetic rats were randomly divided into four groups (n = 5 for each group). The first group served as control group (DM).
Following last dose, rats, fasted overnight, were anesthetized with diethyl ether and blood samples were collected for measurement of blood chemistry. Then, the animals were sacrificed; the liver samples were harvested for standard histology, hepatic biochemical measurement and Western blot.

[10] = DM-AL: diabetic rats, 10 mg/kg, 10 days
[11] = DM-AM: diabetic rats, 20 mg/kg, 10 days
[12] = diabetic rats, 10 and 20 mg/kg, 10 days
[13] = serum, DM-AL: diabetic rats, 10 mg/kg, 10 days
[14] = serum, DM-AM: 20 mg/kg, 10 days
[15] = serum, DM-AM: diabetic rats, 20 mg/kg, 10 days

Compound: Cc1ccc(C)c(OCCCC(C)(C)C(=O)O)c1 [gemfibrozil]
- effect on atorvastatin-induced production of ROS [1]: concentration-dependently reversed
- effect on atorvastatin-induced cytotoxicity [2]: concentration-dependently reversed

Compound: CC(=O)N1CCN(c2ccc(OCC3COC(Cn4ccnc4)(c4ccc(Cl)cc4Cl)O3)cc2)CC1 (stereo not drawn) [ketoconazole, Ketoconazole]
- effect of co-incubation on atorvastatin metabolism [3]: concentration-dependently inhibited

Compound: CCC1(c2ccccc2)C(=O)NC(=O)NC1=O [phenobarbital, Phenobarbital]
- effect on plasma exposure of atorvastatin in rats [4]: decreased
- effect of co-administration on atorvastatin hepatotoxicity [5]: markedly potentiated
- activities and expressions of hepatic SLCO1B1 [6]: significantly increased
- activities and expressions of hepatic Cyp3a [7]: significantly increased

Compound: CC(=O)N[C@@H](CS)C(=O)O [N-Acetylcysteine]
- effect on atorvastatin-induced production of ROS [1]: concentration-dependently reversed
- effect on atorvastatin-induced cytotoxicity [2]: concentration-dependently reversed

Compound: N[C@@H](CCC(=O)N[C@@H](CS)C(=O)NCC(=O)O)C(=O)O [GSH, Glutathione]
- effect on atorvastatin-induced production of ROS [1]: concentration-dependently reversed
- effect on atorvastatin-induced cytotoxicity [2]: concentration-dependently reversed

Compound: CC(C)c1c(C(=O)Nc2ccccc2)c(-c2ccccc2)c(-c2ccc(F)cc2)n1CC[C@@H](O)C[C@@H](O)CC(=O)O [atorvastatin, Atorvastatin calcium]
- cytotoxicity in primary hepatocytes of PB rats ([2]; phenobarbital pre-treated rats, 96 h): severe cytotoxicity
- cell viability [8]: little affected
- Body weight ([9]; DM-AL: diabetic rats, 10 mg/kg atorvastatin orally once daily for 10 days): 269.3 ± 5.3 g
- FBG [9, 10]: 18.38 ± 1.75 mM
- FINS [9, 10]: 32.65 ± 2.15 mIU/L
- HOMA-IR [9, 10]: 27.56 ± 2.01
- Liver weight (% of body weight) [9, 10]: 6.94 ± 0.95 % of body weight
- Spleen weight (% of body weight) [9, 10]: 0.264 ± 0.027 % of body weight
- liver weight (% of body weight) compared with DM rats ([9]; DM-AM: 20 mg/kg, 10 days): almost doubled
- Body weight ([9]; DM-AM: diabetic rats, 20 mg/kg atorvastatin orally once daily for 10 days): 250.8 ± 22.4 g
- FBG [9, 11]: 18.34 ± 1.60 mM
- FINS [9, 11]: 32.51 ± 4.45 mIU/L
- HOMA-IR [9, 11]: 26.92 ± 2.52
- Liver weight (% of body weight) [9, 11]: 10.60 ± 2.25 % of body weight
- Spleen weight (% of body weight) [9, 11]: 0.392 ± 0.033 % of body weight
- MDA levels in liver [9, 12]: increased
- SOD, CAT, GSH-pX and SDH activities in liver [9, 12]: dose-dependently lowered
- histopathological damage scores ([9]; liver, DM-AL (10 mg/kg) and DM-AM (20 mg/kg) rats): Higher
- TC [9, 13]: 4.02 ± 0.71 mM
- TG [9, 13]: 5.40 ± 0.50 mM
- AKP level compared with DM rats [9, 14]: approximately doubled
- ALT level compared with DM rats [9, 14]: approximately doubled
- AST level compared with DM rats [9, 14]: approximately doubled
- DBIL level compared with DM rats [9, 14]: almost tripled
- TBIL level compared with DM rats [9, 14]: almost tripled
- level of Alb [9, 14]: significant decrease
- TC [9, 15]: 3.42 ± 0.52 mM
- TG [9, 15]: 3.75 ± 0.70 mM
